Target: T1, saccharase (Sus scrofa, UniProt P56729)
T1 construct: sucrase subunit of the sucrase-isomaltase complex hydrolyses sucrose
Assay: In vitro saccharase test
Assay type: biochemical, pig
Details: isolated isomer, Example 19
Method: One saccharase inhibitor unit (SIU) is defined as the amount of inhibitor which inhibits two saccharase units to the extent of 50%. One saccharase unit (SU) is the amount of enzyme which under the test conditions specified splits 1 μmol of sucrose to glucose and fructose per minute. The μmols of glucose formed are determined quantitatively by means of the glucose oxidase reaction under conditions under which a further splitting of the sucrose by the saccharase no longer takes place. To carry out the test, 0.05 ml of solubilized saccharase [from the mucous membrane of the small intestine of the pig, according to B. Borgastrom, A. Dahlquist, Acta Chem. Scand. 12, (1958), page 1,997], diluted with 0.1 M sodium maleate buffer of pH 6.0 to a SU content adjusted to 0.12 SU is mixed with 0-20 μg of inhibitor or 0-20 μl of the solution to be tested and brought up to 0.1 ml with 0.1 M sodium maleate buffer of pH 6.0. The mixture is equilibrated for 10 minutes at 35° C and 0.1 ml of an 0.05 M sucrose solution in 0.1 M sodium maleate buffer of pH 6.0, pre-warmed to 35° C, is then added. The mixture is incubated for 20 minutes at 35° C, the saccharase reaction is stopped by addition of 1 ml of glucose oxidase reagent, and the incubation is continued for a further 30 minutes at 35° C. (The glucose oxidase reagent is prepared by dissolving 2 mg of glucose oxidase, Boehringer, No. 15,423, in 100 ml of 0.565 M tris-HCl buffer of pH 7.0 and subsequently adding 1 ml of detergent solution (2 g of Triton X 100 + 8 g of 95% strength and analytical grade ethanol), 1 ml of dianisidine solution (260 mg of o-dianisidine. 2HCl in 20 ml of H2 O) and 0.5 ml of 0.1% strength aqueous peroxidase solution, Boehringer, No. 15,302). Thereafter, 1 ml of 50% strength H2 SO4 is added and a measurement carried out at 545 nm against a corresponding blank. To evaluate the results, the percentage inhibition of the saccharase employed is calculated and converted to SIU/g of SIU/liter from the 50% inhibition point, using a glucose calibration curve.

T1 sequence (P56729 with tags, fused parts or gaps): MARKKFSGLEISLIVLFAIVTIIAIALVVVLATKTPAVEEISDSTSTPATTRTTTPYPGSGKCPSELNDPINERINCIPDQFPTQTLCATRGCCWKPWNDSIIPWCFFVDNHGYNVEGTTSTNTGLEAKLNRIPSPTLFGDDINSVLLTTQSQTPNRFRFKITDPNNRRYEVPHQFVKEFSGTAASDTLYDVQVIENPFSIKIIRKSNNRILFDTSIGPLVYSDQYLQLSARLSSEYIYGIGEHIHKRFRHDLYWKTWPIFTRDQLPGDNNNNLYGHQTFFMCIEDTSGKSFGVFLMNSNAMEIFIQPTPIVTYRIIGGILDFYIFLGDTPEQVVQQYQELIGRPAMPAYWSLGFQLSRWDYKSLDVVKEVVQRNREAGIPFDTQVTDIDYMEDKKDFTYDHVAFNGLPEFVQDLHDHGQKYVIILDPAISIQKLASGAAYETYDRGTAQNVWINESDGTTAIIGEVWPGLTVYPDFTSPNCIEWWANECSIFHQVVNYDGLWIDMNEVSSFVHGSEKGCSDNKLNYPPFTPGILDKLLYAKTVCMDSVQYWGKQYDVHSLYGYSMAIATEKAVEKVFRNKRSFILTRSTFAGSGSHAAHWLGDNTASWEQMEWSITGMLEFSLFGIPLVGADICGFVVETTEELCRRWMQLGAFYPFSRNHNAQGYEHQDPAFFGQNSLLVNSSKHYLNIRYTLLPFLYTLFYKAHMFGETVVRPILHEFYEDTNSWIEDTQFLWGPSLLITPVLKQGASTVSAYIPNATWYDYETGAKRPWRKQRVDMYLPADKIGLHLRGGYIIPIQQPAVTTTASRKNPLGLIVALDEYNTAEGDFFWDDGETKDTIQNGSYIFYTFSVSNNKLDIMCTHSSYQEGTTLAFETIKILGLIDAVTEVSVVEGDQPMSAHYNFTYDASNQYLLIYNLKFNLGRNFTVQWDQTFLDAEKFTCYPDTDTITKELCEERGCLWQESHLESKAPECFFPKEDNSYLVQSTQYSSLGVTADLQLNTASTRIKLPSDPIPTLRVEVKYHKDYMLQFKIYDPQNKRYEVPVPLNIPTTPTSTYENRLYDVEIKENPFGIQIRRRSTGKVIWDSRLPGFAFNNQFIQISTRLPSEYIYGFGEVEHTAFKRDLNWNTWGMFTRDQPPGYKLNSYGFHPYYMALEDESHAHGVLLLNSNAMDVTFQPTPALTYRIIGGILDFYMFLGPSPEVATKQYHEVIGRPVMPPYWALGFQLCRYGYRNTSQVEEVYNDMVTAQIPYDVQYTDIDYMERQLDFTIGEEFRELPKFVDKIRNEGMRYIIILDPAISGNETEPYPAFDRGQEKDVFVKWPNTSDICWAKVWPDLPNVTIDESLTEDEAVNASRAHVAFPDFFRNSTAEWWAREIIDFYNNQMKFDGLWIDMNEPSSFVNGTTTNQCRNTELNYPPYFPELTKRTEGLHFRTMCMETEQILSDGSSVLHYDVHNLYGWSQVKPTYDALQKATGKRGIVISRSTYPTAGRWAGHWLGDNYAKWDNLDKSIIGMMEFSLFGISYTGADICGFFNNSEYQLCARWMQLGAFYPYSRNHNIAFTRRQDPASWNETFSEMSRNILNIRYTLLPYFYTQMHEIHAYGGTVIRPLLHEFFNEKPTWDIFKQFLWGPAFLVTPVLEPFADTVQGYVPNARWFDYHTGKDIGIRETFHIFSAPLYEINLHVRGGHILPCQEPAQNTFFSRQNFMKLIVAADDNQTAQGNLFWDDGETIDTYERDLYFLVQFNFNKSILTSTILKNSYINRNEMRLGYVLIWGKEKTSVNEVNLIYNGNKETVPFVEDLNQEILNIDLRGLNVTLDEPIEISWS

in vitro saccharase inhibiting activity: 19000 SIU/g
SMILES: C[C@H]1O[C@H](O[C@H]2[C@H](O)[C@@H](O)[C@@H](O[C@H]3[C@H](O)[C@@H](O)[C@@H](O[C@H]4[C@H](O)[C@@H](O)C(O)O[C@@H]4CO)O[C@@H]3CO)O[C@@H]2CO)[C@H](O)[C@@H](O)[C@@H]1N[C@H]1C=C(CO)[C@@H](O)[C@H](O)[C@H]1O (stereo partly drawn) [Formula IV, O-{4,6-bisdesoxy-4-[1S-(1,4,6/5)-4,5,6-trihydroxy-3-hydroxymethylcyclohex-2-en-1-ylamino]-α-D-glucopyranosyl}-(1→4)-O-α-D-glucopyranosyl-(1→4)-O-α-D-glucopyranosyl-(1→4)-D-glycopyranose]

Reference: patent US4062950A, “Amino sugar derivatives” (priority 1973, dated 1977)
